Source: PubChem BioAssay AID1259407 (Chemical Carcinogenesis Research Information System (CCRIS), 2018)
Active and inactive are the calls of the source. The rule behind the calls is not given here.

Test system: CCRIS mutagenicity, Ames/micronucleus/aberration tests
Test: CCRIS mutagenicity studies
[1] = Test System: AMES SALMONELLA TYPHIMURIUM, Strain/Indicator: TA98, Metabolic Activation: NONE, Method: STANDARD PLATE
[2] = Test System: AMES SALMONELLA TYPHIMURIUM, Strain/Indicator: TA98, Metabolic Activation: RAT, LIVER, S-9, AROCLOR 1254, Method: STANDARD PLATE
[3] = Test System: AMES SALMONELLA TYPHIMURIUM, Strain/Indicator: TA100, Metabolic Activation: NONE, Method: STANDARD PLATE
[4] = Test System: AMES SALMONELLA TYPHIMURIUM, Strain/Indicator: TA100, Metabolic Activation: RAT, LIVER, S-9, AROCLOR 1254, Method: STANDARD PLATE

Measured: mutagenic call

ClC=C(Cl)Cl
inactive: End Point: IN VITRO CHROMOSOMAL ABERRATIONS, Test System: CHINESE HAMSTER LUNG FIBROBLAST CELLS (CHL/IU), Metabolic Activation: NONE inactive; negative | End Point: IN VITRO CHROMOSOMAL ABERRATIONS, Test System: CHINESE HAMSTER LUNG FIBROBLAST CELLS (CHL/IU), Metabolic Activation: RAT, LIVER, S-9, PHENOBARBITAL AND 5,6-BENZOFLAVONE inactive; negative | End Point: IN VITRO CHROMOSOMAL ABERRATIONS, Test System: CHINESE HAMSTER OVARY CELLS, Metabolic Activation: NONE inactive; negative; precipitation occurred at all doses | End Point: IN VITRO CHROMOSOMAL ABERRATIONS, Test System: CHINESE HAMSTER OVARY CELLS, Metabolic Activation: RAT, LIVER, S-9, AROCLOR 1254 inactive; negative; precipitation occurred at all doses | End Point: IN VITRO MICRONUCLEUS, Test System: V79 CELLS, Metabolic Activation: NONE inactive; negative | End Point: IN VITRO MICRONUCLEUS, Test System: V79 CELLS, Metabolic Activation: RAT, LIVER, S-9, AROCLOR 1254 inactive; negative | Test System: AMES SALMONELLA TYPHIMURIUM, Strain/Indicator: TA98, Metabolic Activation: HAMSTER, LIVER, S-9, AROCLOR 1254, Method: DESICCATOR inactive; negative | Test System: AMES SALMONELLA TYPHIMURIUM, Strain/Indicator: TA98, Metabolic Activation: HAMSTER, LIVER, S-9, AROCLOR 1254, Method: PREINCUBATION inactive; negative | Test System: AMES SALMONELLA TYPHIMURIUM, Strain/Indicator: TA98, Metabolic Activation: NONE, Method: DESICCATOR inactive; negative | Test System: AMES SALMONELLA TYPHIMURIUM, Strain/Indicator: TA98, Metabolic Activation: NONE, Method: PREINCUBATION inactive; negative | [1] inactive; negative | Test System: AMES SALMONELLA TYPHIMURIUM, Strain/Indicator: TA98, Metabolic Activation: RAT, LIVER, S-9, AROCLOR 1254, Method: DESICCATOR inactive; negative | Test System: AMES SALMONELLA TYPHIMURIUM, Strain/Indicator: TA98, Metabolic Activation: RAT, LIVER, S-9, AROCLOR 1254, Method: PREINCUBATION inactive; negative | Test System: AMES SALMONELLA TYPHIMURIUM, Strain/Indicator: TA100, Metabolic Activation: HAMSTER, LIVER, S-9, AROCLOR 1254, Method: DESICCATOR inactive; negative | Test System: AMES SALMONELLA TYPHIMURIUM, Strain/Indicator: TA100, Metabolic Activation: HAMSTER, LIVER, S-9, AROCLOR 1254, Method: PREINCUBATION inactive; negative | Test System: AMES SALMONELLA TYPHIMURIUM, Strain/Indicator: TA100, Metabolic Activation: NONE, Method: DESICCATOR inactive; negative | Test System: AMES SALMONELLA TYPHIMURIUM, Strain/Indicator: TA100, Metabolic Activation: NONE, Method: PREINCUBATION inactive; negative | [3] inactive; negative | Test System: AMES SALMONELLA TYPHIMURIUM, Strain/Indicator: TA100, Metabolic Activation: NONE, Method: VAPOR CHAMBER inactive; negative | Test System: AMES SALMONELLA TYPHIMURIUM, Strain/Indicator: TA100, Metabolic Activation: RAT, LIVER, S-9, AROCLOR 1254, Method: DESICCATOR inactive; negative | Test System: AMES SALMONELLA TYPHIMURIUM, Strain/Indicator: TA100, Metabolic Activation: RAT, LIVER, S-9, AROCLOR 1254, Method: PREINCUBATION inactive; negative | [4] inactive; negative | Test System: AMES SALMONELLA TYPHIMURIUM, Strain/Indicator: TA102, Metabolic Activation: S-9, Method: STANDARD PLATE inactive; negative | Test System: AMES SALMONELLA TYPHIMURIUM, Strain/Indicator: TA104, Metabolic Activation: NONE, Method: STANDARD PLATE inactive; negative | Test System: AMES SALMONELLA TYPHIMURIUM, Strain/Indicator: TA104, Metabolic Activation: RAT, LIVER, S-9, AROCLOR 1254, Method: STANDARD PLATE inactive; negative | Test System: AMES SALMONELLA TYPHIMURIUM, Strain/Indicator: TA1535, Metabolic Activation: HAMSTER, LIVER, S-9, AROCLOR 1254, Method: PREINCUBATION inactive; negative | Test System: AMES SALMONELLA TYPHIMURIUM, Strain/Indicator: TA1535, Metabolic Activation: NONE, Method: PREINCUBATION inactive; negative | Test System: AMES SALMONELLA TYPHIMURIUM, Strain/Indicator: TA1535, Metabolic Activation: NONE, Method: VAPOR CHAMBER inactive; negative | Test System: AMES SALMONELLA TYPHIMURIUM, Strain/Indicator: TA1535, Metabolic Activation: RAT, LIVER, S-9, AROCLOR 1254, Method: PREINCUBATION inactive; negative | Test System: AMES SALMONELLA TYPHIMURIUM, Strain/Indicator: TA1537, Metabolic Activation: HAMSTER, LIVER, S-9, AROCLOR 1254, Method: PREINCUBATION inactive; negative | Test System: AMES SALMONELLA TYPHIMURIUM, Strain/Indicator: TA1537, Metabolic Activation: NONE, Method: PREINCUBATION inactive; negative | Test System: AMES SALMONELLA TYPHIMURIUM, Strain/Indicator: TA1537, Metabolic Activation: RAT, LIVER, S-9, AROCLOR 1254, Method: PREINCUBATION inactive; negative | Test System: AMES SALMONELLA TYPHIMURIUM, Strain/Indicator: TA2638, Metabolic Activation: S-9, Method: STANDARD PLATE inactive; negative | Test System: E. COLI, Strain/Indicator: WP2 (PKM101), Metabolic Activation: S-9, Method: STANDARD PLATE inactive; negative | Test System: E. COLI, Strain/Indicator: WP2 UVRA (PKM101), Metabolic Activation: S-9, Method: STANDARD PLATE inactive; negative | Test System: MOUSE LYMPHOMA, Strain/Indicator: L5178Y (TK+/TK-), Metabolic Activation: NONE, Method: SUSPENSION/PLATE inactive; negative
active: Test System: AMES SALMONELLA TYPHIMURIUM, Strain/Indicator: TA97, Metabolic Activation: NONE, Method: STANDARD PLATE active; positive | Test System: AMES SALMONELLA TYPHIMURIUM, Strain/Indicator: TA97, Metabolic Activation: RAT, LIVER, S-9, AROCLOR 1254, Method: STANDARD PLATE active; positive | [2] active; positive | Test System: AMES SALMONELLA TYPHIMURIUM, Strain/Indicator: TA100, Metabolic Activation: MOUSE, LIVER, S-9, AROCLOR 1254, Method: DESICCATOR active; positive | Test System: AMES SALMONELLA TYPHIMURIUM, Strain/Indicator: TA1535, Metabolic Activation: NONE, Method: DESICCATOR active; positive | Test System: AMES SALMONELLA TYPHIMURIUM, Strain/Indicator: TA1535, Metabolic Activation: RAT, LIVER, S-9, AROCLOR 1254, Method: DESICCATOR active; positive | Test System: MOUSE LYMPHOMA, Strain/Indicator: L5178Y (TK+/TK-), Metabolic Activation: RAT, LIVER, S-9, AROCLOR 1254, Method: SUSPENSION/PLATE active; positive

FC(F)C(F)(F)F
inactive: [1] inactive; negative | [2] inactive; negative | [3] inactive; negative | [4] inactive; negative | Test System: AMES SALMONELLA TYPHIMURIUM, Strain/Indicator: TA1535, Metabolic Activation: NONE, Method: STANDARD PLATE inactive; negative | Test System: AMES SALMONELLA TYPHIMURIUM, Strain/Indicator: TA1535, Metabolic Activation: RAT, LIVER, S-9, AROCLOR 1254, Method: STANDARD PLATE inactive; negative | Test System: AMES SALMONELLA TYPHIMURIUM, Strain/Indicator: TA1537, Metabolic Activation: NONE, Method: STANDARD PLATE inactive; negative | Test System: AMES SALMONELLA TYPHIMURIUM, Strain/Indicator: TA1537, Metabolic Activation: RAT, LIVER, S-9, AROCLOR 1254, Method: STANDARD PLATE inactive; negative | Test System: AMES SALMONELLA TYPHIMURIUM, Strain/Indicator: TA1538, Metabolic Activation: NONE, Method: STANDARD PLATE inactive; negative | Test System: AMES SALMONELLA TYPHIMURIUM, Strain/Indicator: TA1538, Metabolic Activation: RAT, LIVER, S-9, AROCLOR 1254, Method: STANDARD PLATE inactive; negative | Test System: E. COLI, Strain/Indicator: WP2 UVRA, Metabolic Activation: NONE, Method: STANDARD PLATE inactive; negative | Test System: E. COLI, Strain/Indicator: WP2 UVRA, Metabolic Activation: RAT, LIVER, S-9, AROCLOR 1254, Method: STANDARD PLATE inactive; negative

Cc1ccc(NC2OC[C@@H](O)[C@H](O)[C@H]2O)cc1 (stereo partly specified)
active: Test System: AMES SALMONELLA TYPHIMURIUM, Strain/Indicator: TA100, Metabolic Activation: NONE, Method: LIQUID INCUBATION active; positive
